Measurements taken from patent US20260274856A1, “COVALENT CEREBLON LIGANDS” (C4 THERAPEUTICS, INC., priority 2023, published 2026).
Read-outs that look alike come from different tables or passages of the source.

What was measured:
mutant BRAF V600E = mutant BRAF V600E (Homo sapiens, UniProt P15056, V600E); test: BRAF V600E HiBiT Degradation Assay in A375.10 cells; conditions: for HiBIT-Degradation A375.10 BRAF 24 hours IP nM / DC50 / HiBIT-Degradation A375.10 BRAF 2 hours IP nM: A375.10 cells; for HiBIT-Degradation A375.10 BRAF 24 hours IP nM / HiBIT-Degradation A375.10 BRAF 2 hours IP nM: inflection point of the dose-response curve
cellular cereblon (CRBN) = cellular cereblon (CRBN) (Homo sapiens, UniProt Q96SW2); test: NanoBRET Target Engagement Assay, competition with pomalidomide tracer in 293T.116 cells
[1] = read-out: HiBIT-Degradation A375.10 BRAF 24 hours DC50 nM, 24 hours
[2] = read-out: HiBIT-Degradation A375.10 BRAF 24 hours Emax
[3] = read-out: HIBIT-Degradation A375.10 BRAF 2 hours DC50 nM, 2 hours
[4] = read-out: HiBIT-Degradation A375.10 BRAF 2 hours Emax

SMILES	HiBIT-Degradation A375.10 BRAF 24 hours IP nM (mutant BRAF V600E; 24 hours)	DC50 (mutant BRAF V600E; [1])	Emax (mutant BRAF V600E; [2])	HiBIT-Degradation A375.10 BRAF 2 hours IP nM (mutant BRAF V600E; 2 hours)	DC50 (mutant BRAF V600E; [3])	Emax (mutant BRAF V600E; [4])	further results
CCN(C)S(=O)(=O)Nc1ccc(F)c(Oc2ccc3ncn([C@H]4COC5(CCN(C(=O)CN6CCC(c7ccc(C8CCC(=O)NC8=O)cc7OS(=O)(=O)F)CC6)CC5)C4)c(=O)c3c2)c1C#N (some centres unmarked) [drawing 1211]	*** (<= 1 μM is ***)	< 1000 nM	< 60%				
CCN(C)S(=O)(=O)Nc1ccc(F)c(Oc2ccc3ncn([C@@H]4COC5(CCN(C(=O)CN6CCC(c7ccc(NC8CCC(=O)NC8=O)cc7OS(C)(=O)=O)CC6)CC5)C4)c(=O)c3c2)c1C#N (some centres unmarked) [drawing 1208]				** (<10 μM and >1 μM is **)	> 10000 nM	60 to 95%	
CCN(C)S(=O)(=O)Nc1ccc(F)c(Oc2ccc3ncn([C@H]4COC5(CCN(C(=O)CN6CCC(c7ccc(C8CCC(=O)NC8=O)cc7OS(=O)(=O)F)CC6)CC5)C4)c(=O)c3c2)c1C#N (some centres unmarked) [drawing 1190]				*** (<= 1 μM is)	< 1000 nM	< 60%	
CCN(C)S(=O)(=O)Nc1ccc(F)c(Oc2ccc3ncn([C@@H]4COC5(CCN(C(=O)CN6CCC(c7ccc(NC8CCC(=O)NC8=O)cc7S(=O)(=O)F)CC6)CC5)C4)c(=O)c3c2)c1C#N (some centres unmarked) [drawing 1209]				* (>=10 μM is *)	> 10000 nM	60 to 95%	
CCN(C)S(=O)(=O)Nc1ccc(F)c(Oc2ccc3ncn([C@H]4COC5(CCN(C(=O)CN6CCC(c7ccc(NC8CCC(=O)NC8=O)cc7S(=O)(=O)F)CC6)CC5)C4)c(=O)c3c2)c1C#N (some centres unmarked) [drawing 1197]				*** (<= 1 μM is)	> 10000 nM	60 to 95%	
CCN(C)S(=O)(=O)Nc1ccc(F)c(Oc2ccc3ncn([C@@H]4COC5(CCN(C(=O)CN6CCC(c7ccc(N8CCC(=O)NC8=O)cc7OS(=O)(=O)F)CC6)CC5)C4)c(=O)c3c2)c1C#N [drawing 1192]				* (>=10 μM is *)	> 10000 nM	> 95%	
CCN(C)S(=O)(=O)Nc1ccc(F)c(Oc2ccc3ncn([C@@H]4COC5(CCN(C(=O)CN6CCC(c7ccc(C8CCC(=O)NC8=O)cc7OS(=O)(=O)F)CC6)CC5)C4)c(=O)c3c2)c1C#N (some centres unmarked) [drawing 1210]	*** (<= 1 μM is ***)	< 1000 nM	< 60%				
CCN(C)S(=O)(=O)Nc1ccc(F)c(Oc2ccc3ncn([C@H]4COC5(CCN(C(=O)CN6CCC(c7ccc(OC8CCC(=O)NC8=O)cc7OS(=O)(=O)F)CC6)CC5)C4)c(=O)c3c2)c1C#N (some centres unmarked) [drawing 1214]	*** (<= 1 μM is ***)	< 1000 nM	< 60%				
CCN(C)S(=O)(=O)Nc1ccc(F)c(Oc2ccc3ncn([C@H]4COC5(CCN(C(=O)CN6CCC(c7ccc(OC8CCC(=O)NC8=O)cc7OS(=O)(=O)F)CC6)CC5)C4)c(=O)c3c2)c1C#N (some centres unmarked) [drawing 1196]				*** (<= 1 μM is)	1000 to 10000 nM	< 60%	
CCN(C)S(=O)(=O)Nc1ccc(F)c(Oc2ccc3ncn([C@@H]4COC5(CCN(C(=O)CN6CCC(c7ccc(OC8CCC(=O)NC8=O)cc7S(=O)(=O)F)CC6)CC5)C4)c(=O)c3c2)c1C#N (some centres unmarked) [drawing 1221]	*** (<= 1 μM is ***)	< 1000 nM	< 60%				
CCN(C)S(=O)(=O)Nc1ccc(F)c(Oc2ccc3ncn([C@@H]4COC5(CCN(C(=O)CN6CCN(c7ccc(N8CCC(=O)NC8=O)cc7OS(=O)(=O)F)CC6)CC5)C4)c(=O)c3c2)c1C#N [drawing 1195]				* (>=10 μM is *)	> 10000 nM	60 to 95%	
CCN(C)S(=O)(=O)Nc1ccc(F)c(Oc2ccc3ncn([C@@H]4COC5(CCN(C(=O)CN6CCC(c7ccc(C8CCC(=O)NC8=O)cc7OS(C)(=O)=O)CC6)CC5)C4)c(=O)c3c2)c1C#N (some centres unmarked) [drawing 1223]	*** (<= 1 μM is ***)	< 1000 nM	< 60%				
CCN(C)S(=O)(=O)Nc1ccc(F)c(Oc2ccc3ncn([C@H]4COC5(CCN(C(=O)CN6CCC(c7ccc(OC8CCC(=O)NC8=O)cc7OS(C)(=O)=O)CC6)CC5)C4)c(=O)c3c2)c1C#N (some centres unmarked) [drawing 1204]				*** (<= 1 μM is)	1000 to 10000 nM	< 60%	
CCN(C)S(=O)(=O)Nc1ccc(F)c(Oc2ccc3ncn([C@H]4COC5(CCN(C(=O)CN6CCN(c7ccc(N8CCC(=O)NC8=O)cc7OS(=O)(=O)F)CC6)CC5)C4)c(=O)c3c2)c1C#N [drawing 1213]	*** (<= 1 μM is ***)	1000 to 10000 nM	< 60%				
CCN(C)S(=O)(=O)Nc1ccc(F)c(Oc2ccc3ncn([C@H]4COC5(CCN(C(=O)CN6CCC(c7ccc(NC8CCC(=O)NC8=O)cc7OS(C)(=O)=O)CC6)CC5)C4)c(=O)c3c2)c1C#N (some centres unmarked) [drawing 1202]				*** (<= 1 μM is)	1000 to 10000 nM	< 60%	
CCN(C)S(=O)(=O)Nc1ccc(F)c(Oc2ccc3ncn([C@H]4COC5(CCN(C(=O)CN6CCC(c7ccc(OC8CCC(=O)NC8=O)cc7S(=O)(=O)F)CC6)CC5)C4)c(=O)c3c2)c1C#N (some centres unmarked) [drawing 1225]	** (<10 μM and >1 μM is **)	> 10000 nM	60 to 95%				
CCN(C)S(=O)(=O)Nc1ccc(F)c(Oc2ccc3ncn([C@@H]4COC5(CCN(C(=O)CN6CCC(c7ccc(N8CCC(=O)NC8=O)cc7OS(C)(=O)=O)CC6)CC5)C4)c(=O)c3c2)c1C#N [drawing 1219]	*** (<= 1 μM is ***)	< 1000 nM	< 60%				
CCN(C)S(=O)(=O)Nc1ccc(F)c(Oc2ccc3ncn([C@@H]4COC5(CCN(C(=O)CN6CCC(c7ccc(C8CCC(=O)NC8=O)cc7OS(=O)(=O)F)CC6)CC5)C4)c(=O)c3c2)c1C#N (some centres unmarked) [drawing 1189]				*** (<= 1 μM is)	1000 to 10000 nM	60 to 95%	
CCN(C)S(=O)(=O)Nc1ccc(F)c(Oc2ccc3ncn([C@H]4COC5(CCN(C(=O)CN6CCC(c7ccc(C8CCC(=O)NC8=O)cc7OS(=O)(=O)F)CC6)CC5)C4)c(=O)c3c2)c1C#N (some centres unmarked) [drawing 1216]	*** (<= 1 μM is ***)	< 1000 nM					
CCN(C)S(=O)(=O)Nc1ccc(F)c(Oc2ccc3ncn([C@@H]4COC5(CCN(C(=O)CN6CCC(c7ccc(N8CCC(=O)NC8=O)cc7OS(C)(=O)=O)CC6)CC5)C4)c(=O)c3c2)c1C#N [drawing 1203]				*** (<= 1 μM is)	> 10000 nM	< 60%	
CCN(C)S(=O)(=O)Nc1ccc(F)c(Oc2ccc3ncn([C@H]4COC5(CCN(C(=O)CN6CCC(c7ccc(NC8CCC(=O)NC8=O)cc7S(=O)(=O)F)CC6)CC5)C4)c(=O)c3c2)c1C#N (some centres unmarked) [drawing 1215]	*** (<= 1 μM is ***)	< 1000 nM	< 60%				
CCN(C)S(=O)(=O)Nc1ccc(F)c(Oc2ccc3ncn([C@@H]4COC5(CCN(C(=O)CN6CCN(c7ccc(N8CCC(=O)NC8=O)cc7OS(=O)(=O)F)CC6)CC5)C4)c(=O)c3c2)c1C#N [drawing 1229]	** (<10 μM and >1 μM is **)	1000 to 10000 nM	< 60%				
CCN(C)S(=O)(=O)Nc1ccc(F)c(Oc2ccc3ncn([C@H]4COC5(CCN(C(=O)CN6CCN(c7ccc(C8CCC(=O)NC8=O)cc7OS(=O)(=O)F)CC6)CC5)C4)c(=O)c3c2)c1C#N (some centres unmarked) [drawing 1191]				*** (<= 1 μM is)	1000 to 10000 nM	< 60%	
Cn1nc(N2CCC(=O)NC2=O)c2cccc(S(=O)(=O)F)c21 [Compound A-10, 3-(2,4-dioxotetrahydropyrimidin-1(2H)-yl)-1-methyl-1H-indazole-7-sulfonyl fluoride]							NanoBRET TE 293T.116 CRBN 2 hours IP nM (cellular cereblon (CRBN); 2 hours incubation, 293T.116 cells, IP): *** (<= 1 μM is ***); NanoBRET TE 293T.116 CRBN 6 hours IP nM (cellular cereblon (CRBN); 6 hours incubation, 293T.116 cells, IP): *** (<= 1 μM is ***); NanoBRET TE 293T.116 CRBN 24 hours IP nM (cellular cereblon (CRBN); 24 hours incubation, 293T.116 cells, IP): *** (<= 1 μM is ***); IC50 (cellular cereblon (CRBN); NanoBRET TE 293T.116 CRBN 2 hours IC50 nM, 2 hours incubation, 293T.116 cells): < 1000 nM; IC50 (cellular cereblon (CRBN); NanoBRET TE 293T.116 CRBN 6 hours IC50 nM, 6 hours incubation, 293T.116 cells): < 1000 nM; IC50 (cellular cereblon (CRBN); NanoBRET TE 293T.116 CRBN 24 hours IC50 nM, 24 hours incubation, 293T.116 cells): < 1000 nM; Emax (cellular cereblon (CRBN); read-out: NanoBRET TE 293T.116 CRBN 2 hours Emax): < 50%; Emax (cellular cereblon (CRBN); read-out: NanoBRET TE 293T.116 CRBN 6 hours Emax): < 50%; Emax (cellular cereblon (CRBN); read-out: NanoBRET TE 293T.116 CRBN 24 hours Emax): < 50%
